# Test system: capsaicin-induced allodynia
# Experiment: Von Frey filaments in a model of capsaicin-induced allodynia
# Type: in vivo
# Details: mice, percent analgesia compared to control, mechanical stimulus after capsaicin injection into paw
# Method: This model is described in detail in the experimental part of WO 2006/010587 A1, examples 1 and 2, the description being included here by reference. Capsaicin is thereby injected into experimental animals to produce acute pain followed by allodynia.
# Briefly after habituation mice were first treated with the test-compound (or not in controls). Then capsaicin (1% DMSO) is injected into their paw resulting in developing pain in the effected paw. The effected paw is then treated with a mechanical stimulus and the latency time before the paw is withdrawn is measured.
# The results obtained for examples 5, 6 and 8 are shown in table (II) as percent analgesia compared to control achieved at […] 16 mg/kg i.p.
row,SMILES,"Analgesia (16 mg/kg), i.p. % [%]"
1,"O=C(O)C(=O)O.c1cn(C2CCCCC2)nc1OCCN1CCCC1 [Example 8, 1-Cyclohexyl-3-(2-(pyrrolidin-1-yl)ethoxy)-1H-pyrazole oxalate]",65
2,"O=C(O)C(=O)O.c1cn(C2CCCCC2)nc1OCCN1CCCCC1 [Example 6, 1-(2-(1-cyclohexyl-1H-pyrazol-3-yloxy)ethyl)piperidine oxalate]",70
3,"O=C(O)C(=O)O.c1cn(C2CCCCC2)nc1OCCN1CCOCC1 [Example 5, 4-(2-(1-cyclohexyl-1H-pyrazol-3-yloxy)ethyl)morpholine oxalate]",20

# Biological target: T1, σ1-receptor (Cavia porcellus, UniProt Q60492)
# T1 construct: guinea pig brains are homogenized; from tissue; host or cells: guinea pig brain membranes
# Experiment: Sigma-1 receptor binding assay, [3H](+)-pentazocine, brain membranes
# Details: guinea pig brain membranes
# Method: Brain membrane preparation and binding assays for the σ1-receptor are performed as described (DeHaven-Hudkins et al., 1992) with some modifications. In brief, guinea pig brains are homogenized in 10 vols. (w/v) of Tris-HCl 50 mM 0.32 M sucrose, pH 7.4, with a Kinematica Polytron PT 3000 at 15000 r.p.m. for 30 s. The homogenate is centrifuged at 1000 g for 10 min at 4° C. and the supernatants collected and centrifuged again at 48000 g for 15 min at 4° C. The pellet is resuspended in 10 volumes of Tris-HCl buffer (50 mM, pH 7.4), incubated at 37° C. for 30 min, and centrifuged at 48000 g for 20 min at 4° C. Following this, the pellet is resuspended in fresh Tris-HCl buffer (50 mM, pH 7.4) and stored on ice until use.
# Each assay tube contains 10 μL of [^3H](+)-pentazocine (final concentration of 0.5 nM), 900 μL of the tissue suspension to a final assay volume of 1 mL and a final tissue concentration of approximately 30 mg tissue net weight/mL. Non-specific binding is defined by addition of a final concentration of 1 μM haloperidol. All tubes are incubated at 37° C. for 150 min before termination of the reaction by rapid filtration over Schleicher & Schuell GF 3362 glass fibre filters [previously soaked in a solution of 0.5% polyethylenimine for at least 1 h]. Filters are then washed four times with 4 mL of cold Tris-HCl buffer (50 mM, pH 7.4). Following addition of scintillation cocktail, the samples are allowed to equilibrate overnight. The amount of bound radioactivity is determined by liquid scintillation spectrometry using a Wallac Winspectral 1414 liquid scintillation counter. Protein concentrations are determined by the method of Lowry et al. (1951).
# T1 sequence (Q60492 whole entry): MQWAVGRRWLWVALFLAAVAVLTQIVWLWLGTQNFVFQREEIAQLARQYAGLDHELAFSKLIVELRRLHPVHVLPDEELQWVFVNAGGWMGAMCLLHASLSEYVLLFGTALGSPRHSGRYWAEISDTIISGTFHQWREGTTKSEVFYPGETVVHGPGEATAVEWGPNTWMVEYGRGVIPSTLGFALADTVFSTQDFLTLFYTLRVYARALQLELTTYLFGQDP
row,SMILES,Ki [nM]
1,"O=C(O)C(=O)O.c1cn(C2CCCCC2)nc1OCCN1CCCC1 [Example 8, 1-Cyclohexyl-3-(2-(pyrrolidin-1-yl)ethoxy)-1H-pyrazole oxalate]",2.5
2,"O=C(O)C(=O)O.c1ccc(C2CCN(CCOc3ccn(C4CCCCC4)n3)CC2)cc1 [Example 11, 1-(2-(1-Cyclohexyl-1H-pyrazol-3-yloxy)ethyl)-4-phenylpiperidine oxalate]",8.6

# Now from value to compound:
row,Ki [nM],SMILES
1,1 ± 0.3,"O=C(O)C(=O)O.c1cn(C2CCCCC2)nc1OCCN1CCCCC1 [Example 6, 1-(2-(1-cyclohexyl-1H-pyrazol-3-yloxy)ethyl)piperidine oxalate]"
2,4.1 ± 0.1,"O=C(O)C(=O)O.c1cn(C2CCCCC2)nc1OCCN1CCOCC1 [Example 5, 4-(2-(1-cyclohexyl-1H-pyrazol-3-yloxy)ethyl)morpholine oxalate]"

# Test system: not given
# Experiment: not given
# Details: not given
row,SMILES,melting point [°C]
1,"O=C(O)C(=O)O.c1cn(C2CCCCC2)nc1OCCN1CCCC1 [Example 8, 1-Cyclohexyl-3-(2-(pyrrolidin-1-yl)ethoxy)-1H-pyrazole oxalate]",117 to 119
2,"CC(C)(C)n1ccc(OCCN2CCCC2)n1.O=C(O)C(=O)O [Example 4, 1-tert-butyl-3-[2-(pyrrolidin-1-yl)ethoxy]-1H-pyrazole oxalate]",82 to 88
3,"O=C(O)C(=O)O.c1ccc(C2CCN(CCOc3ccn(C4CCCCC4)n3)CC2)cc1 [Example 11, 1-(2-(1-Cyclohexyl-1H-pyrazol-3-yloxy)ethyl)-4-phenylpiperidine oxalate]",122 to 128
4,"CCN(CC)CCOc1ccn(C2CCCCC2)n1.O=C(O)C(=O)O [Example 7, 2-(1-cyclohexyl-1H-pyrazol-3-yloxy)-N,N-diethylethanamine oxalate]",85 to 90

# Further lines, results first:
row,melting point [°C],SMILES
1,123 to 126,"CC(C)(C)n1ccc(OCCN2CCCCC2)n1.O=C(O)C(=O)O [Example 2, 1-[2-(1-tert-butyl-1H-pyrazol-3-yloxy)ethyl]piperidine oxalate]"
2,105 to 110,"O=C(O)C(=O)O.c1cn(C2CCCCC2)nc1OCCN1CCCCC1 [Example 6, 1-(2-(1-cyclohexyl-1H-pyrazol-3-yloxy)ethyl)piperidine oxalate]"
3,96 to 98,CCN(CC)CCOc1ccn(C(C)(C)C)n1.O=C(O)C(=O)O
4,135 to 140,"O=C(O)C(=O)O.c1cn(C2CCCCC2)nc1OCCN1CCOCC1 [Example 5, 4-(2-(1-cyclohexyl-1H-pyrazol-3-yloxy)ethyl)morpholine oxalate]"

# Reference: US8088812B2, “Sigma receptor inhibitors” (Laboratorios Del Dr. Esteve, S.A., priority 2006, dated 2012)
